Reference: the supplement of paper PMC10307832

Legend:
Assay in all cases: relative viability (nuclei count vs DMSO), 5 days (fraction); higher = more cells survive
[1] = compound: Cc1ccccc1C(C(=O)NC1CCCCC1)N(C(=O)Cn1ccnc1C)c1cccc(F)c1 [IDH-C35] + NC(=O)Nc1cc(-c2cccc(F)c2)sc1C(=O)N[C@H]1CCCNC1 [AZD7762] (partner 0.2 µM)
Procedure, shortened: (§1)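 Values are medians from duplicate plates. Each reflects relative viability, defined as the nuclei count of treated wells over that of vehicle wells. Lung cancer cell lines in 1536-well plates were pin-tool dosed one day after seeding with one drug alone or with a fixed anchor-drug dose plus five library-drug doses (not always all listed) in √10 steps, then fixed, stained and imaged at 4× after 5 days.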

[2] = compound: Cc1ccccc1C(C(=O)NC1CCCCC1)N(C(=O)Cn1ccnc1C)c1cccc(F)c1 [IDH-C35] + N=C(N)NC(=N)NCCc1ccccc1 [Phenformin] (partner 250 µM)
Procedure, shortened: as §1

[3] = compound: CC1=C(C(=NN1)C)CC2=C(C3=C(S2)N(C(=O)N(C3=O)C)CC(C)C)C(=O)N4C[C@@H](CO4)O + CC(C)C[C@H](NC(=O)[C@H](Cc1ccccc1)NC(=O)c1cnccn1)B(O)O [Bortezomib] (partner 0.002 µM)
Procedure, shortened: as §1

[4] = compound: CC1=C(C(=NN1)C)CC2=C(C3=C(S2)N(C(=O)N(C3=O)C)CC(C)C)C(=O)N4C[C@@H](CO4)O + O=C(CCCCCCC(=O)Nc1ccccc1)NO [Vorinostat] (partner 1 µM)
Procedure, shortened: as §1

Cell Line	relative viability ([1]; first compound 0.08 µM)	relative viability ([1]; first compound 0.253 µM)	relative viability ([1]; first compound 0.8 µM)	relative viability ([1]; first compound 2.53 µM)	relative viability ([1]; first compound 8 µM)	relative viability ([2]; first compound 0.08 µM)	relative viability ([2]; first compound 0.253 µM)	relative viability ([2]; first compound 0.8 µM)	relative viability ([2]; first compound 2.53 µM)	relative viability ([2]; first compound 8 µM)	relative viability ([3]; first compound 0.0025 µM)	relative viability ([3]; first compound 0.007906 µM)	relative viability ([3]; first compound 0.025 µM)	relative viability ([3]; first compound 0.07906 µM)	relative viability ([3]; first compound 0.25 µM)	relative viability ([4]; first compound 0.0025 µM)	relative viability ([4]; first compound 0.007906 µM)	relative viability ([4]; first compound 0.025 µM)	relative viability ([4]; first compound 0.07906 µM)	relative viability ([4]; first compound 0.25 µM)
HCC-44	1	0.982	0.999	1.03	1.01	0.227	0.293	0.254	0.166	0.182	0.901	0.904	0.9	0.893	0.797	1.08	1.12	1.03	1.05	1.18
HCC-827	0.218	0.266	0.221	0.206	0.228	0.425	0.348	0.384	0.397	0.406	0.923	1.04	0.985	0.913	1.08	0.805	0.91	0.837	0.843	1.01
NCI-H1623	–	–	–	–	–	0.604	0.638	0.573	0.613	0.557	–	–	–	–	–	–	–	–	–	–
NCI-H2347	0.781	0.799	0.884	0.718	0.658	0.421	0.516	0.362	0.474	0.241	1.09	1.15	0.684	0.718	0.852	0.588	0.624	0.544	0.559	0.431
PC-14	0.339	0.427	0.32	0.302	0.387	0.53	0.611	0.642	0.434	0.662	0.841	0.86	0.896	0.972	1.03	0.824	0.885	0.692	0.824	0.982
NCI-H1651	0.454	0.518	0.463	0.438	0.413	0.338	0.292	0.362	0.344	0.296	0.956	1.02	0.889	0.879	0.856	0.504	0.601	0.505	0.545	0.581
HARA	0.362	0.422	0.318	0.22	0.383	0.522	0.461	0.435	–	0.386	1.21	1.15	1	0.979	1.1	0.511	0.657	0.653	0.516	0.509
NCI-H1650	–	–	–	–	–	0.486	0.423	0.436	0.462	0.379	0.218	0.203	0.234	0.17	0.189	0.529	0.583	0.49	0.713	0.568
NCI-H1395	0.396	0.408	0.407	0.446	0.403	0.45	0.477	0.498	0.396	0.44	–	–	–	–	–	0.75	0.663	0.508	0.756	0.683
LU99A	0.326	0.398	0.396	0.335	0.36	1.04	0.941	0.919	0.776	0.858	1.37	1.21	1.07	1.14	1.2	0.462	0.526	0.505	0.46	0.575
NCI-H1355	0.805	0.889	0.715	0.72	0.657	0.52	0.438	0.424	0.466	0.395	1.2	1.28	1.24	1.15	1.23	0.72	0.632	0.66	0.55	0.662
NCI-H1563	–	–	–	–	–	0.703	0.625	0.696	0.623	0.649	0.943	0.938	0.938	0.811	0.818	–	–	–	–	–
LK-2	0.422	0.542	0.37	0.444	0.336	0.564	0.474	0.476	0.27	0.623	–	–	–	–	–	0.342	0.272	0.208	0.266	0.301
COR-L23	–	–	–	–	–	0.478	0.42	0.423	0.421	0.382	1.07	0.895	0.888	0.754	0.865	0.499	0.378	0.37	0.422	0.484
SW 900	0.564	0.787	–	0.505	0.549	0.669	0.591	0.56	0.615	0.438	–	–	–	–	–	0.558	0.55	0.534	0.504	0.445
NCI-H1648	–	0.578	0.781	0.687	0.703	–	–	–	–	–	–	–	–	–	–	0.787	0.413	0.42	0.406	0.441
A549	–	–	–	–	–	0.188	0.189	0.151	–	0.19	–	–	–	–	–	–	–	–	–	–
NCI-H1792	0.795	0.725	0.657	0.719	0.609	0.257	0.258	0.244	0.483	0.334	0.94	1.01	0.861	0.878	0.786	–	–	–	–	–
NCI-H1703	–	0.141	–	0.131	0.148	–	–	–	–	–	0.265	0.223	0.221	0.3	0.256	–	–	–	–	–

Cell Line	relative viability ([1]; first compound 0.08 µM)	relative viability ([1]; first compound 0.253 µM)	relative viability ([1]; first compound 0.8 µM)	relative viability ([1]; first compound 2.53 µM)	relative viability ([1]; first compound 8 µM)	relative viability ([2]; first compound 0.08 µM)	relative viability ([2]; first compound 0.253 µM)	relative viability ([2]; first compound 0.8 µM)	relative viability ([2]; first compound 2.53 µM)	relative viability ([2]; first compound 8 µM)	relative viability ([3]; first compound 0.0025 µM)	relative viability ([3]; first compound 0.007906 µM)	relative viability ([3]; first compound 0.025 µM)	relative viability ([3]; first compound 0.07906 µM)	relative viability ([3]; first compound 0.25 µM)	relative viability ([4]; first compound 0.0025 µM)	relative viability ([4]; first compound 0.007906 µM)	relative viability ([4]; first compound 0.025 µM)	relative viability ([4]; first compound 0.07906 µM)	relative viability ([4]; first compound 0.25 µM)
SK-LU-1	–	–	–	–	–	0.604	0.541	0.558	0.628	0.527	1.15	0.752	0.425	0.789	0.541	0.744	0.528	0.571	0.611	0.611
COR-L 105	–	–	–	–	–	0.479	0.479	0.555	0.484	0.457	0.841	0.763	0.882	0.73	0.802	0.89	0.918	0.374	0.86	0.744
Calu-6	–	–	–	–	–	–	–	–	–	–	1.05	1.05	0.904	1.12	1.09	–	–	–	–	–
NCI-H358	0.609	0.544	0.477	0.492	0.426	0.366	0.33	0.337	0.388	0.328	–	–	–	–	–	0.704	0.575	0.677	0.803	0.836
NCI-H1944	0.587	0.731	0.492	0.462	0.491	0.212	0.183	0.202	0.18	0.192	–	–	–	–	–	0.6	0.704	0.576	0.522	0.594
NCI-H2342	0.521	0.563	0.498	0.572	0.384	0.572	0.566	0.579	0.651	0.527	–	–	–	–	–	0.611	0.766	0.709	0.656	0.644
EBC-1	–	–	–	–	–	–	–	–	–	–	0.602	0.553	0.588	0.639	0.648	–	–	–	–	–
NCI-H1299	–	–	–	–	–	–	–	–	–	–	1.03	0.946	0.975	1.01	1.01	–	–	–	–	–
NCI-H2228	–	–	–	–	–	0.255	0.374	0.436	0.417	0.405	0.996	1.09	1.11	0.97	1.47	0.559	0.811	0.681	0.649	0.9
NCI-H522	0.845	0.934	0.868	0.788	0.985	0.643	0.65	0.764	0.629	0.659	–	–	–	–	–	0.963	1.03	0.682	0.551	0.551
IA-LM	–	–	–	–	–	–	–	–	–	–	0.923	0.652	0.815	1	0.883	0.91	1.19	–	0.942	1.08
SK-MES-1	–	–	–	–	–	0.696	0.649	0.6	0.673	0.648	–	–	–	–	–	1.19	1.23	1.1	1.05	1.16
NCI-H2170	1.04	0.919	0.899	0.786	0.757	0.393	0.415	0.403	0.425	0.412	–	–	–	–	–	0.82	0.792	0.779	0.749	0.864
SW 1573	–	–	–	–	–	0.456	0.372	0.387	0.359	0.352	1.09	1.13	1.1	1.07	0.893	0.795	0.714	0.792	0.679	0.782
NCI-H661	–	–	–	–	–	0.305	0.275	0.307	0.28	0.266	1	1.01	0.692	0.882	0.635	0.787	0.863	0.746	0.805	0.834
NCI-H1793	0.46	0.446	0.46	0.349	0.443	0.399	0.418	0.399	–	0.337	–	–	–	–	–	0.72	0.959	0.757	0.733	0.747
NCI-H520	–	–	–	–	–	0.588	0.665	0.652	0.525	0.699	0.646	0.413	0.192	0.23	0.28	0.678	0.777	0.594	0.577	0.684
NCI-H2023	–	–	–	–	–	0.405	0.376	0.404	0.41	0.351	1.11	1.11	0.945	0.975	0.963	0.621	0.797	0.645	0.545	0.636
NCI-H2009	–	–	–	–	–	0.56	0.498	0.521	0.451	0.481	1.03	1.08	0.975	1.09	1.13	0.703	0.785	0.735	0.756	0.701
